From ChEMBL document CHEMBL1140420, “Synthesis of tricyclic 1,3-oxazin-4-ones and kinetic analysis of cholesterol esterase and acetylcholinesterase inhibition” (J Med Chem, 2005) come the findings set out here.

The target of one experiment is Acetylcholinesterase (Electrophorus electricus, UniProt O42275).
Experiment [1] addresses T1, Bile salt-activated lipase (Bos taurus, UniProt P30122).
T1 sequence (P30122 whole entry): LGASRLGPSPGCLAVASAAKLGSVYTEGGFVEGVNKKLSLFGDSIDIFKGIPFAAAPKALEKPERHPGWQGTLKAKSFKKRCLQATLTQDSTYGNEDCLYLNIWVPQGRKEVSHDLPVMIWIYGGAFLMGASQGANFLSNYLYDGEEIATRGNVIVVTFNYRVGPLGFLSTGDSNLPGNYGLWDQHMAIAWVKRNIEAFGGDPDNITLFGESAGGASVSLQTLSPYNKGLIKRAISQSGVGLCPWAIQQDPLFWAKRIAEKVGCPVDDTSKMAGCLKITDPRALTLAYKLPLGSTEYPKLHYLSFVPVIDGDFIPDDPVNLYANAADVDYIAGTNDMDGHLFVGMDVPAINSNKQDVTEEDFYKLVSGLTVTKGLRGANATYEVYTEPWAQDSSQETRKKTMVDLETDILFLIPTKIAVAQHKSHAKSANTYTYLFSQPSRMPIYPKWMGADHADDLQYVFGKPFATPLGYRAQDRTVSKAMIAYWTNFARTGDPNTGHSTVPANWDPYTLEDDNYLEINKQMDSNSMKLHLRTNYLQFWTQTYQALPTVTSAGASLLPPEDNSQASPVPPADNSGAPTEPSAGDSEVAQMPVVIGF
Description: Inhibitory activity against bovine pancreatic CEase in presence of pNPB chromogenic substrate by spectrophotometry

Acetylcholinesterase, sequence (O42275 whole entry): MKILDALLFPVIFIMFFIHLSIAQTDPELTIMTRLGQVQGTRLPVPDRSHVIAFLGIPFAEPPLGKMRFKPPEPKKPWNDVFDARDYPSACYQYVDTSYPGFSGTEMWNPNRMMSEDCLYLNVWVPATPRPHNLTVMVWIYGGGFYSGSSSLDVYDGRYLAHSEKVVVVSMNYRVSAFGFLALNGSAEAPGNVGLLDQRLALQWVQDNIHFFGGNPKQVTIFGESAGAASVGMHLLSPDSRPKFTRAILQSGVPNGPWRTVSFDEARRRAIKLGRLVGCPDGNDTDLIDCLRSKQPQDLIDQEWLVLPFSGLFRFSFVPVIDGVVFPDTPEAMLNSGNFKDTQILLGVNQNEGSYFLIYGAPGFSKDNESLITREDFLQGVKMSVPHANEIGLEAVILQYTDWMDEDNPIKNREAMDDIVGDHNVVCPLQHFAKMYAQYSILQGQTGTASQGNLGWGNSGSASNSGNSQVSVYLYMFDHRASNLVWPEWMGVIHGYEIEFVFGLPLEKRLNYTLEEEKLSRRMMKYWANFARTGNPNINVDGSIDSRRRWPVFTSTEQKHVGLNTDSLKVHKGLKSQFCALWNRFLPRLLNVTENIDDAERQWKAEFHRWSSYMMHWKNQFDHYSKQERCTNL
Description for Acetylcholinesterase: Inhibitory activity AChE from Electrophorus electricus using ATCh substrate and DTNB by spectrophotometry

For `CC(C)Nc1nc2sc3c(c2c(=O)o1)CCN(Cc1ccccc1)C3`, inhibition against Acetylcholinesterase was half-maximal at 0.74 µM (IC50). The Ki in experiment [1] was greater than 50 µM.

`CCN(CC)c1nc2sc(C(N)=O)c(C)c2c(=O)o1` registered a half-maximal inhibitory concentration (IC50) against Acetylcholinesterase greater than 50 µM. In addition, the Ki in experiment [1] is greater than 50 µM.

Compound `CCN(CC)c1nc2sc3ccccc3c2c(=O)o1` gave an IC50 on Acetylcholinesterase greater than 50 µM. The Ki in experiment [1] came to 7.5 µM.

`CN(C)c1nc2sc3c(c2c(=O)o1)CCSC3` came in with an IC50 against Acetylcholinesterase greater than 50 µM. Also, in experiment [1], the Ki was 5.76 µM.

`CCN(CC)c1nc2sc3c(c2c(=O)o1)CCCCC3`: at Acetylcholinesterase, the IC50 was greater than 50 µM. Besides, the Ki in experiment [1] is 6 µM.

As to `O=c1oc(Nc2ccccc2)nc2sc3c(c12)CCN(Cc1ccccc1)C3`, on Acetylcholinesterase, half-maximal inhibition (IC50) was put at 0.94 µM. Moreover, the inhibition constant (Ki) in experiment [1] is greater than 50 µM.

At Acetylcholinesterase, `CCN(CC)c1nc2sc(C)c(C)c2c(=O)o1` showed an IC50 greater than 50 µM. Besides, the Ki in experiment [1] amounted to 4.3 µM.

At Acetylcholinesterase, `CCN(CC)c1nc2scc(C)c2c(=O)o1` registered an IC50 greater than 50 µM. Moreover, in experiment [1], the Ki was determined as 15 µM.

Take `CCN1CCc2c(sc3nc(N(C)C)oc(=O)c23)C1`: on Acetylcholinesterase, it took 10.5 µM to reach half-maximal inhibition (IC50). Further, the Ki in experiment [1] is greater than 50 µM.

As for `O=C(Nc1nc2sc3c(c2c(=O)o1)CCN(Cc1ccccc1)C3)c1ccccc1`, the IC50 at Acetylcholinesterase came to 2.86 µM. Besides, in experiment [1], the Ki is greater than 50 µM.

`COc1ccc(CN(C)c2nc3sc4c(c3c(=O)o2)CCN(Cc2ccccc2)C4)cc1OC` gave an IC50 on Acetylcholinesterase of 0.33 µM. The Ki in experiment [1] is greater than 50 µM.

On to `CN(C)c1nc2sc3c(c2c(=O)o1)CCOC3`, for which the half-inhibitory concentration (IC50) against Acetylcholinesterase is greater than 50 µM. Besides, the Ki in experiment [1] was greater than 50 µM.

The compound `Nc1nc2sc3c(c2c(=O)o1)CCN(Cc1ccccc1)C3` showed an IC50 against Acetylcholinesterase of 5.9 µM. The Ki in experiment [1] is greater than 50 µM.

On Acetylcholinesterase, `CCN(CC)c1nc2sc3c(c2c(=O)o1)C(C)CCC3` (stereo not drawn) yielded an IC50 greater than 50 µM. In addition, in experiment [1], the Ki worked out at 1.64 µM.

In turn, `CCN(CC)c1nc2sc3c(c2c(=O)o1)CCC3` had an IC50 against Acetylcholinesterase greater than 50 µM. In experiment [1], the Ki came to 0.58 µM.

`CN1CCc2c(sc3nc(N(C)C)oc(=O)c23)C1` showed an IC50 against Acetylcholinesterase of 38.9 µM. Moreover, in experiment [1], the Ki was greater than 50 µM.

In turn, `O=c1sc(Nc2ccccc2)nc2sc3c(c12)CCN(Cc1ccccc1)C3` showed an IC50 against Acetylcholinesterase of 1.03 µM. The Ki in experiment [1] is greater than 50 µM.

At Acetylcholinesterase, `O=c1oc(N2CCOCC2)nc2sc3c(c12)CCN(Cc1ccccc1)C3` yielded an IC50 of 0.77 µM. In addition, the Ki in experiment [1] is greater than 50 µM.

At Acetylcholinesterase, `CC(C)CN1CCc2c(sc3nc(N(C)C)oc(=O)c23)C1` displayed an IC50 of 0.36 µM and a Ki of 0.66 µM. Also, the Ki in experiment [1] is greater than 50 µM.

On Acetylcholinesterase, `CN(Cc1ccccc1)c1nc2sc3c(c2c(=O)o1)CCN(Cc1ccccc1)C3` had an IC50 of 0.84 µM. Moreover, in experiment [1], the Ki was greater than 50 µM.

`CN(C)c1nc2sc3c(c2c(=O)o1)CCC3` returned a half-inhibitory concentration (IC50) against Acetylcholinesterase greater than 50 µM. In experiment [1], the Ki was 0.63 µM.

Turning to `O=c1oc(N2CCN(Cc3ccccc3)CC2)nc2sc3c(c12)CCN(Cc1ccccc1)C3`, the IC50 against Acetylcholinesterase came out at 1.32 µM. The Ki in experiment [1] is greater than 50 µM.

On Acetylcholinesterase, `CN(c1nc2sc3c(c2c(=O)o1)CCCC3)C1CCCCC1` registered an IC50 greater than 50 µM. Also, the Ki in experiment [1] came out at 18 µM.

With `CCN(CC)c1nc2sc3c(c2c(=O)o1)CCCC3`, the IC50 against Acetylcholinesterase was greater than 50 µM. The Ki in experiment [1] came out at 1.86 µM.

On Acetylcholinesterase, `O=C(Nc1nc2sc3c(c2c(=O)s1)CCN(Cc1ccccc1)C3)c1ccccc1` yielded an IC50 of 5.2 µM. For the same compound, the Ki in experiment [1] is greater than 50 µM.

`Nc1nc2sc3c(c2c(=O)s1)CCN(Cc1ccccc1)C3` gave an IC50 against Acetylcholinesterase of 1.2 µM. For the same compound, the Ki in experiment [1] was greater than 50 µM.

`CC(C)Nc1nc2sc3c(c2c(=O)s1)CCN(Cc1ccccc1)C3` showed an IC50 against Acetylcholinesterase of 0.58 µM. Moreover, in experiment [1], the Ki is greater than 50 µM.

`CN(C)c1nc2sc3c(c2c(=O)o1)CCN(C(=O)c1ccccc1)C3` showed an IC50 against Acetylcholinesterase of 35.6 µM. For the same compound, the Ki in experiment [1] is greater than 50 µM.

The compound `CN(C)c1nc2sc3c(c2c(=O)o1)CCN(Cc1ccccc1)C3` registered an IC50 against Acetylcholinesterase of 0.89 µM. For the same compound, the inhibition constant (Ki) on Acetylcholinesterase was 1.7 µM; in experiment [1], greater than 50 µM.

Regarding `CN(C)c1nc2sc3c(c2c(=O)o1)CCCC3`, the IC50 against Acetylcholinesterase was greater than 50 µM. For the same compound, the Ki in experiment [1] was 2.15 µM.

On to `CCN(CC)c1nc2scc(C(C)C)c2c(=O)o1`, for which the IC50 on Acetylcholinesterase was greater than 50 µM. Besides, the inhibition constant Ki in experiment [1] came to 6.4 µM.

As for `CCN(CC)c1nc2sc3c(c2c(=O)o1)CCN(Cc1ccccc1)C3`, inhibition against Acetylcholinesterase was half-maximal at 2.08 µM (IC50). The Ki in experiment [1] is greater than 50 µM.

In the case of `O=c1oc(NC2CCCCC2)nc2sc3c(c12)CCN(Cc1ccccc1)C3`, the Ki in experiment [1] was greater than 50 µM.

With `O=c1oc(N2CCOCC2)nc2sc3c(c12)CCCC3`, the IC50 against Acetylcholinesterase is greater than 50 µM. Besides, in experiment [1], the Ki stood at 5.7 µM.

At Acetylcholinesterase, `O=c1sc(NC2CCCCC2)nc2sc3c(c12)CCN(Cc1ccccc1)C3` returned an IC50 of 2.82 µM. For the same compound, the Ki in experiment [1] was greater than 50 µM.

As for `CC(C)Nc1nc2sc3c(c2c(=O)o1)CCCC3`, the IC50 on Acetylcholinesterase is greater than 50 µM. Also, the Ki in experiment [1] was greater than 50 µM.

Usually IC50 stands for the point on the concentration scale where inhibition reaches its midpoint. Broadly, the Ki is the equilibrium dissociation constant of an inhibitor or competing ligand from its target.
